Experimental data: ChEMBL document CHEMBL1138556, “Synthesis of some new 4-styryltetrazolo[1,5-a]quinoxaline and 1-substituted-4-styryl[1,2,4]triazolo[4,3-a]quinoxaline derivatives as potent anticonvulsants” (2009)

Tests used:
[1] = test system: Mus musculus; assay: Anticonvulsant activity in Swiss albino mouse assessed as duration of pentylenetetrazole-induced seizures at 10 mg/kg administered 1 hr before PTZ challenge; format: functional
[2] = test system: Mus musculus; assay: Anticonvulsant activity in Swiss albino mouse assessed as protection against pentylenetetrazole-induced seizures at 10 mg/kg administered 1 hr before PTZ challenge relative to control; format: functional

SMILES | Activity [1] | Activity [2]
Fc1ccc(/C=C/c2nc3ccccc3n3c(C(F)(F)F)nnc23)cc1 | 0 s | 100%
COc1ccc2cc(/C=C/c3nc4ccccc4n4nnnc34)ccc2c1 | 8 s | 0%
COc1ccc(/C=C/c2nc3ccccc3n3c(C)nnc23)cc1 | 14 s | 0%
COc1ccc(-c2nnc3c(/C=C/c4ccc(Cl)cc4)nc4ccccc4n23)cc1 | 12 s | 0%
O=[N+]([O-])c1cccc(/C=C/c2nc3ccccc3n3cnnc23)c1 | 12 s | 0%
Cc1nnc2c(/C=C/c3cccc([N+](=O)[O-])c3)nc3ccccc3n12 | 11 s | 0%
COc1ccc(/C=C/c2nc3ccccc3n3c(C(F)(F)F)nnc23)cc1 | 0 s | 100%
O=[N+]([O-])c1cccc(/C=C/c2nc3ccccc3n3nnnc23)c1 | 11 s | 0%
Fc1ccc(/C=C/c2nc3ccccc3n3c(-c4ccc(-c5ccccc5)cc4)nnc23)cc1 | 8 s | 0%
Fc1ccc(/C=C/c2nc3ccccc3n3cnnc23)cc1 | 0 s | 100%
C(=C\c1nc2ccccc2n2nnnc12)/c1ccccc1 | 0 s | 100%
COc1ccc(/C=C/c2nc3ccccc3n3nnnc23)cc1 | 11 s | 0%
COc1ccc(/C=C/c2nc3ccccc3n3c(-c4ccc(F)cc4)nnc23)cc1 | 0 s | 100%
COc1ccc(/C=C/c2nc3ccccc3n3cnnc23)cc1 | 14 s | 0%
Fc1ccc(/C=C/c2nc3ccccc3n3nnnc23)cc1 | 0 s | 100%
Cc1nnc2c(/C=C/c3ccc(F)cc3)nc3ccccc3n12 | 0 s | 100%
COc1ccc2cc(/C=C/c3nc4ccccc4n4c(C(F)(F)F)nnc34)ccc2c1 | 12 s | 0%
CCOc1ccc(-c2nnc3c(/C=C/c4ccc(Cl)cc4)nc4ccccc4n23)cc1O | 12 s | 0%
